Patent US20230339970A1, “CASEIN KINASE 1 DELTA MODULATORS” (priority 2020, published 2023)

Assays:
human CSNK1D = target: T1, human CSNK1D (Homo sapiens, UniProt P48730); experiment: Whole Cell nBRET CSNK1D Binding Assay; conditions: living CHO cells stably expressing human CSNK1D tagged with nanoluciferase; NanoBret tracer 130 nM; 2 hours at 37 C
T1 construct: expressed in transfected cells

[1] = target: T2, human recombinant GST cleaved CSNK1D (Homo sapiens, UniProt P48730); experiment: Purified Enzyme Assay (ADP-Glo CSNK1D Kinase Assay); type: biochemical; conditions: 2 nM CSNK1D; peptide substrate 150 μM; ATP 20 μM; 45 minutes at room temperature
T2 construct: GST (cleaved yes); purchased University of Dundee clone DU 19064
T2 sequence (P48730 whole entry): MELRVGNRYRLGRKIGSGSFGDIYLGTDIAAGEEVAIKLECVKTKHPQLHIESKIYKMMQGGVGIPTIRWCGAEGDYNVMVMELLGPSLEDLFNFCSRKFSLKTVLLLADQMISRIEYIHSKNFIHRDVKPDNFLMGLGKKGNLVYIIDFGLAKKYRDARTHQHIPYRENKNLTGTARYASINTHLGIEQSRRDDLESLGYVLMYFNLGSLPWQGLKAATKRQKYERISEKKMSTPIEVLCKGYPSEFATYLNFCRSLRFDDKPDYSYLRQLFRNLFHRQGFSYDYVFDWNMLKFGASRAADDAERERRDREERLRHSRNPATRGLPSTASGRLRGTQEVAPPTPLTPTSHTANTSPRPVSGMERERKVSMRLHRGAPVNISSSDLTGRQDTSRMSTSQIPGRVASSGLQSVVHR
In short: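 GST-cleaved human recombinant CSNK1D phosphorylates peptide PLSRTL-pS-VASLPGL with ATP; compounds added in dose-response, 45 min at room temperature. ADP formed measured by ADP-Glo luminescence and converted to percent activity.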

T1 sequence (P48730 whole entry): as above

Row | IC50 (human CSNK1D) | IC50 [1] | Structure (SMILES)
1 | 96 nM | 5 nM | Fc1ccc(-c2nn3c(c2-c2c(F)cnc4[nH]ncc24)CC[C@@H]2C[C@@H]23)nc1 (single isomer, unassigned) [Example 343, (5a*R,6a*S)-3-(5-Fluoro-1H-pyrazolo[3,4-b]pyridin-4-yl)-2-(5-fluoropyridin-2-yl)-5,5a,6,6a-tetrahydro-4H-cyclopropa[e]pyrazolo[1,5-a]pyridine]
2 | 1460 nM | 54 nM | Cc1nc2[nH]ncc2c(-c2c(-c3ccc(F)cn3)nn3c2CC2(C3)CC2(F)F)c1F (single isomer, unassigned) [Example 263, (*R)-1′.1′-Difluoro-3-(5-fluoro-6-methyl-1H-pyrazolo[3,4-b]pyridin-4-yl)-2-(5-fluoro-2-pyridyl)spiro[4,6-dihydropyrrolo[1,2-b]pyrazole-5,2′-cyclopropane]]
3 | 59 nM | 3 nM | CC1CCn2nc(-c3ccc(F)cn3)c(-c3ccnc4[nH]ncc34)c2O1 (single isomer, unassigned) [Example 198, (*S)-2-(5-Fluoro-2-pyridyl)-5-methyl-3-(1H-pyrazolo[3,4-b]pyridin-4-yl)-6,7-dihydro-5H-pyrazolo[5,1-b][1,3]oxazine]
4 | 57 nM | 6 nM | Cc1cc(-c2c(-c3ccc(F)cn3)nn3c2CCC2CC23)c2cn[nH]c2n1 (racemic) [Example 57, (Racemic) 2-(5-Fluoropyridin-2-yl)-3-(6-methyl-1H-pyrazolo[3,4-b]pyridin-4-yl)-5,5a,6,6a-tetrahydro-4H-cyclopropa[e]pyrazolo[1,5-a]pyridine]
5 | > 10000 nM | 231 nM | CC1(O)COCc2c(-c3ccnc4[nH]ncc34)c(-c3ccc(F)cn3)nn2C1 (centres unmarked) [Example 484, 2-(5-Fluoropyridin-2-yl)-7-methyl-3-(1H-pyrazolo[3,4-b]pyridin-4-yl)-7,8-dihydro-4H,6H-pyrazolo[5,1-c][1,4]oxazepin-7-ol]
6 | 181 nM | 11 nM | Fc1ccc(-c2nn3c(c2-c2cc(C(F)F)nc4[nH]ncc24)CCC3)nc1 [Example 222, 6-(Difluoromethyl)-4-[2-(5-fluoro-2-pyridyl)-5,6-dihydro-4H-pyrrolo[1,2-b]pyrazol-3-yl]-1H-pyrazolo[3,4-b]pyridine]
7 | 305 nM | 13 nM | C[C@@H]1C[C@@H](C)n2nc(-c3ccc(F)cn3)c(-c3ccnc4[nH]ncc34)c2O1 (single isomer, unassigned) [Example 204, (5*R,7*R)-2-(S-Fluoropyridin-2-yl)-5,7-dimethyl-3-(1H-pyrazolo[3,4-b]pyridin-4-yl)-6,7-dihydro-5H-pyrazolo[5,1-b][1,3]oxazine]

Second part, the molecule before the results:

Row | Structure (SMILES) | IC50 (human CSNK1D) | IC50 [1]
8 | Fc1ccc(-c2nn3c(c2-c2ccnc4[nH]ncc24)CC(F)(F)C3)cc1 [Example 230, 4-[5,5-Difluoro-2-(4-fluorophenyl)-4,6-dihydropyrrolo[1,2-b]pyrazol-3-yl]-1H-pyrazolo[3,4-b]pyridine] | 74 nM | 5 nM
9 | Fc1ccc(-c2nn3c(c2-c2ccnc4[nH]ncc24)[C@H](Cl)C[C@]2(C3)CC2(F)F)nc1 (single isomer, unassigned) [Example 338, (1*S,4′*R)-4′-Chloro-2,2-difluoro-2′-(5-fluoropyridin-2-yl)-3′-(1H-pyrazolo[3,4-b]pyridin-4-yl)-4′,5′-dihydro-7′H-spiro[cyclopropane-1,6′-pyrazolo[1,5-a]pyridine]] | 72 nM | 5 nM
10 | CC1(C)Cn2nc(-c3ccc(F)cn3)c(-c3ccnc4[nH]ccc34)c2CO1 [Example 147, 2-(5-Fluoropyridin-2-yl)-6,6-dimethyl-3-(1H-pyrrolo[2,3-b]pyridin-4-yl)-6,7-dihydro-4H-pyrazolo[5,1-c][1,4]oxazine] | 11 nM | 1 nM
11 | Fc1ccc(-c2nn3c(c2-c2c(F)cnc4[nH]ncc24)OCC2(C3)CC2(F)F)cc1 (centres unmarked) [Example 471, 2,2-Difluoro-3′-(5-fluoro-1H-pyrazolo[3,4-b]pyridin-4-yl)-2′-(4-fluorophenyl)-5′H,7′H-spiro[cyclopropane-1,6′-pyrazolo[5,1-b][1,3]oxazine]] | 3 nM | 2 nM
12 | Cc1n[nH]c2nccc(-c3c(-c4ccc(F)cc4)nn4c3COC(C(F)(F)F)C4)c12 (single isomer, unassigned) [Example 372, (*S)-2-(4-Fluorophenyl)-3-(3-methyl-1H-pyrazolo[3,4-b]pyridin-4-yl)-6-(trifluoromethyl)-6,7-dihydro-4H-pyrazolo[5,1-c][1,4]oxazine] | 724 nM | 42 nM
13 | Cn1ncc2nccc(-c3c(-c4ccc(F)cn4)nn4c3COC(C)(C)C4)c21 [Example 159, 2-(5-Fluoropyridin-2-yl)-6,6-dimethyl-3-(1-methyl-1H-pyrazolo[4,3-b]pyridin-7-yl)-6,7-dihydro-4H-pyrazolo[5,1-c][1,4]oxazine] | > 10000 nM | 1180 nM
14 | CC1(C)Cn2nc(-c3c(F)cncc3F)c(-c3ccnc4[nH]ncc34)c2CO1 [Example 165, 2-(3,5-Difluoropyridin-4-yl)-6,6-dimethyl-3-(1H-pyrazolo[3,4-b]pyridin-4-yl)-6,7-dihydro-4H-pyrazolo[5,1-c][1,4]oxazine] | 702 nM | 15 nM
15 | C[C@@H]1Cn2nc(-c3ccc(F)cc3)c(-c3ccnc4[nH]ncc34)c2CO1 (single isomer, unassigned) [Example 82, (*R)-2-(4-Fluorophenyl)-6-methyl-3-(1H-pyrazolo[3,4-b]pyridin-4-yl)-6,7-dihydro-4H-pyrazolo[5,1-c][1,4]oxazine] | 26 nM | 2 nM
16 | CC1(C)Cn2nc(-c3ccc(F)cn3)c(-c3ccnc4ccsc34)c2CO1 [Example 137, 2-(5-Fluoropyridin-2-yl)-6,6-dimethyl-3-(thieno[3,2-b]pyridin-7-yl)-6,7-dihydro-4H-pyrazolo[5,1-c][1,4]oxazine] | 1330 nM | 54 nM
17 | Cc1cc(-c2c(-c3ccc(F)cc3)nn3c2OCC2(C3)CC2(F)F)c2cn[nH]c2n1 (single isomer, unassigned) [Example 475, (*R)-2,2-Difluoro-2′-(4-fluorophenyl)-3′-(6-methyl-1H-pyrazolo[3,4-b]pyridin-4-yl)-5′H,7′H-spiro[cyclopropane-1,6′-pyrazolo[5,1-b][1,3]oxazine]] | 36 nM | 6 nM
18 | [2H]C([2H])([2H])[C@@]1(C(F)(F)F)Cn2nc(-c3ccc(F)cn3)c(-c3c(F)c(C)nc4[nH]nc(C)c34)c2CO1 (single isomer, unassigned) [Example 431, (*S)-3-(5-Fluoro-3,6-dimethyl-1H-pyrazolo[3,4-b]pyridin-4-yl)-2-(5-fluoropyridin-2-yl)-6-(methyl-d3)-6-(trifluoromethyl)-6,7-dihydro-4H-pyrazolo[5,1-c][1,4]oxazine] | > 10000 nM | 1580 nM
19 | Fc1ccc(-c2nn3c(c2-c2ccnc4[nH]ncc24)CO[C@@H](C(F)(F)F)C3)cc1 [Example 101, (R)-2-(4-Fluorophenyl)-3-(1H-pyrazolo[3,4-b]pyridin-4-yl)-6-(trifluoromethyl)-6,7-dihydro-4H-pyrazolo[5,1-c][1,4]oxazine] | 24 nM | 2 nM
